Columns and labels:
[1] = Stability in liver microsomes, human; type: in vitro ADME; details: 60 minutes, read-out: In vitro Clint
Method: (§1) For metabolic stability, microsomes from human, monkey, dog, rat and mouse were used. For stability, prodrugs (1 μM) were spiked in each microsomes matrix and incubated in an orbital shaker at 37° C. Aliquots of 50 μL were taken from the reaction solution at 0, 15, 30, 45 and 60 min. The reaction was stopped by the addition of 4 volumes of cold acetonitrile with IS (100 nM alprazolam, 200 nM labetalol, 200 nM caffeine and 2 μM ketoprofen). Samples were centrifuged at 3, 220 g for 40 minutes. Aliquot of 100 μL of the supernatant was mixed with 100 μL of ultra-pure H2O and then used for LC-MS/MS analysis.
(§2) For LC-MS/MS, prodrugs were analyzed on an API 4000 instrument from AB Inc (Canada) with an ESI interface coupled to Shimadzu LC system on an Waters XSelect HSS T3 C18, 2.5 m, 2.1×30 mm column.
(§3) For data analysis, peak areas were determined from extracted ion chromatograms. The slope value, k, was determined by linear regression of the natural logarithm of the remaining percentage of the parent drug vs. incubation time curve. The in vitro half-life (in vitro t1/2) was determined from the slope value: in vitro t1/2=−(0.693/k)
(§4) Conversion of the in vitro t1/2 (min) into the in vitro intrinsic clearance (in vitro CLint, in μL/min/mg protein) was done using the following equation (mean of duplicate determinations): […]

[2] = Stability in liver microsomes, monkey; type: in vitro ADME; details: 60 minutes, read-out: In vitro Clint
Method: as §1, §2, §3, §4

[3] = Plasma stability, swine plasma; details: 1 μM, 37° C., 4 hours
Method: (§5) For metabolic stability, plasma from dog, monkey, swine and human were used. For stability, prodrugs (1 μM) were spiked in respective solutions and incubated in an orbital shaker at 37° C. 50 μL aliquots of the mixture in duplicate were removed, and the reaction quenched by addition of four times the volume of ice cold acetonitrile spiked with the internal standard (Dexamethasone 100 ng/mL). […] 100 μL of the supernatant was diluted with 100 μL of water and transferred to the 0.6 mL plastic tubes on 96-well plate. Prodrug disappearance was monitored over time using a liquid chromatography and tandem mass spectrometry (LC-MS/MS).
(§6) For LC-MS/MS, prodrugs were analyzed on a ExionLC AD HPLC system coupled to REF Triple Quad 5500+ mass spectrometer with an ESI interface on an Phenomenex Kinetex 5 m C18 100A (2.1*50) mm UPLC column. The autosampler was temperature controlled and was operated at 4° C. The mobile phase used for the chromatographic separation was composed of acetonitrile/water containing 0.10% formic acid and will run at a flow rate of 0.6 mL/min for 3.5 min using gradient elution. The column effluent was monitored using […], equipped with an electrospray probe set in the positive ionization mode. Samples were introduced into the ionization source through a heated nebulized probe (400° C.). Disappearance of prodrugs will be measured from ratio of peak areas of analyte to IS.
(§7) For quantification of compound remaining, disappearance of prodrugs was measured from ratio of peak areas of analyte to IS.

MC38 tumor cells = assay: Anti-tumor efficacy in MC38 model in C57BL/6 mouse (Example 11); type: in vivo; details: C57BL/6, MC38, 2 μmol/kg S.C. QD; for T/C (%) / TGI (%) / TV (mm^3) (Mean ± SEM) D6 / TV (mm^3) (Mean ± SEM) D10 / TV (mm^3) (Mean ± SEM) D13 / TV (mm^3) (Mean ± SEM) D17 / TV (mm^3) (Mean ± SEM) D20: Example 11; for TV (mm^3) at D21 (Mean ± SEM): Table 13
Method: Animal species: Mus musculus; Strain: C57BL/6; Age: 6-8 weeks; Sex: female. The MC38 tumor cells were maintained in vitro in DMEM medium supplemented with 10% FBS at 37° C., 5% CO2. The cells growing in an exponential growth phase were harvested and counted for tumor inoculation. The culture MC38 were harvested, re-suspended in PBS containing 50% Matrigel at a density of 1×10^7 cells/mL. Each mouse was inoculated subcutaneously in the right flank region with 1×10^6 cells in 0.1 mL of PBS containing 50% Matrigel for tumor development.
The treatments were started when the mean tumor size reached 82-129 mm^3 (average tumor size 102 mm^3). Each group contained 6 tumor bearing mice. Group 1 was treated with Vehicle (10% DMSO+90% Saline), S.C., QD.
(§8) In vivo efficacy was examined according to absolute tumor growth inhibition (TGI) and the safety was evaluated according to weight change and survival in mice.
Statistical analysis of difference in tumor volume among the groups was performed using one-way ANOVA followed by individual comparisons using Games-Howell post-hoc test (equal variance not assumed). All data was analyzed using SPSS 22.0 software.

[4] = Stability in liver microsomes, dog; type: in vitro ADME; details: 60 minutes, read-out: In vitro Clint
Method: as §1, §2, §3, §4

[5] = Plasma stability, monkey plasma; details: 1 μM, 37° C., 4 hours
Method: as §5, §6, §7

[6] = Plasma stability, dog plasma; type: in vitro ADME; details: 1 μM, 37° C., 4 hours
Method: For metabolic stability, plasma from dog, monkey, swine and human were used. For stability, prodrugs (1 μM) were spiked in respective solutions and incubated in an orbital shaker at 37° C. 50 μL aliquots of the mixture in duplicate were removed, and the reaction quenched by addition of four times the volume of ice cold acetonitrile spiked with the internal standard (Dexamethasone 100 ng/mL). The samples were vortexed for 30 s and centrifuged at 15000 g for 5 min. 100 μL of the supernatant was diluted with 100 μL of water and transferred to the 0.6 mL plastic tubes on 96-well plate. Prodrug disappearance was monitored over time using a liquid chromatography and tandem mass spectrometry (LC-MS/MS).
as §6, §7

[7] = Plasma stability, human plasma; details: 1 μM, 37° C., 4 hours
Method: as §5, §6, §7

[8] = Stability in liver microsomes, mouse; type: in vitro ADME; details: 60 minutes, read-out: In vitro Clint
Method: as §1, §2, §3, §4

[9] = Stability in liver microsomes, rat; type: in vitro ADME; details: 60 minutes, read-out: In vitro Clint
Method: as §1, §2, §3, §4

[10] = Body weight of C57BL/6 mice bearing MC38 tumors (Example 11); type: in vivo, Mus musculus; details: C57BL/6, MC38, 2 μmol/kg S.C. QD; for BW Change (%): D6 to D20
Method: The treatments were started when the mean tumor size reached 82-129 mm^3 (average tumor size 102 mm^3). Each group contained 6 tumor bearing mice. Group 1 was treated with Vehicle (10% DMSO+90% Saline), S.C., QD. Group 2 was given treatments with compound 2 at 2 μmol/kg, S.C., QD. Group 3 was given treatments with compound 81 at 2 μmol/kg, S.C., QD. Group 4 was given treatments with compound 443 at 2 μmol/kg, S.C., QD. Group 5 was given treatments with compound 459 at 2 μmol/kg, S.C., QD. Group 6 was given treatments with compound 3 at 2 μmol/kg, S.C., QD.
as §8

Compound | microsomal CLint at 1 μM [1] [µL/min/mg] | microsomal CLint at 1 μM [2] [µL/min/mg] | plasma stability (compound remaining) [3] | T/C (%) (MC38 tumor cells) | TGI (%) (MC38 tumor cells) | TV (mm^3) (Mean ± SEM) D6 (MC38 tumor cells) | TV (mm^3) (Mean ± SEM) D10 (MC38 tumor cells) | TV (mm^3) (Mean ± SEM) D13 (MC38 tumor cells) | TV (mm^3) (Mean ± SEM) D17 (MC38 tumor cells) | TV (mm^3) (Mean ± SEM) D20 (MC38 tumor cells) | TV (mm^3) at D21 (Mean ± SEM) (MC38 tumor cells) [mm^3] | microsomal CLint at 1 μM [4] [µL/min/mg] | plasma stability (compound remaining) [5] | plasma stability (compound remaining) [6] | plasma stability (compound remaining) [7] | microsomal CLint at 1 μM [8] [µL/min/mg] | microsomal CLint at 1 μM [9] [µL/min/mg] | BW(g) (Mean ± SEM) Beginning (D6) [10] | BW Change (%) [10] | BW(g) (Mean ± SEM) End (D20) [10]
CO[C@@H](CCSC)C(=O)N[C@@H](CCC(=O)C=[N+]=[N-])C(=O)OC(C)C [Compound 443, isopropyl (S)-6-diazo-2-((S)-2-methoxy-4-(methylthio)butanamido)-5-oxohexanoate] | 73.5 | 180 | substantially intact | 21.5 | 78.5 | 102 ± 6 | 152 ± 25 | 267 ± 65 | 384 ± 95 | 500 ± 119 | 500 ± 119 | 81.9 | substantially intact | substantially intact | substantially intact | 408 | 239 | 19.9 ± 0.6 | +11.9% | 22.3 ± 0.5
CO[C@@H](C)C(=O)N[C@@H](CCC(=O)C=[N+]=[N-])C(=O)SC(C)C [Compound 459, S-isopropyl (S)-6-diazo-2-((S)-2-methoxypropanamido)-5-oxohexanethioate] | 18.9 | 130 | substantially intact | 11.8 | 88.2 | 102 ± 5 | 148 ± 22 | 183 ± 30 | 281 ± 65 | 275 ± 59 | 275 ± 59 | 9.57 | substantially intact | substantially intact | substantially intact | 71.7 | 115 | 19.9 ± 0.3 | +6.3% | 21.1 ± 0.5
